Read-outs that look alike come from different tables or passages of the source.
How the values were obtained:
P. yoelii = assay: Anti-malarial activity in P. yoelii-infected mice; format: in vivo, P. yoelii in Swiss white mice
Description: FIG. 4 illustrates the effect of 5-fluoro-orotate treatment on blood parasitemia. Mice infected with P. yoelii on day 0 in experiments 1 and 2 were treated with (A) 0.2 mg/kg 5-fluoro-orotate, (B) 1 mg/kg, or (C) 5 mg/kg every 4 hours for three days. Control mice (.largecircle., .circle-solid., respectively), received no drug. Open symbols represent treatment without uridine (experiment 1: .smallcircle., .quadrature., .diamond., Δ), and filled symbols represent animals also treated with uridine (experiment 2: .circle-solid., .box-solid., .diamond-solid., .tangle-solidup.). Animals were treated with 5-fluoro-orotate on days 3 to 6. Animals were also treated with uridine in experiment 2 on days 3 to 9.
FIG. 5 illustrates the survival rate of mice infected with P. yoelii and treated with 5-fluoro-orotate, alone or in combination with uridine. Mice were treated with (A) 0.2 mg/kg 5-fluoro-orotate, (B) 1 mg/kg, or (C) 5 mg/kg. Control mice received no 5-fluoro-orotate (.largecircle., .circle-solid., respectively). Open symbols represent treatment without uridine (experiment 1: .largecircle., .quadrature., .diamond., Δ), and closed symbols represent animals also receiving uridine (experiment 2: .circle-solid., .box-solid., .diamond-solid., .tangle-solidup.).
A second in vivo test system can be used to determine if repeated administration of the pyrimidine analogue would have safe anti-malarial activity. In this test system, groups of animals are infected with malaria parasites. At a time when blood parasitemia is reached, the animals are injected with saline alone (control) or with various concentrations of one or more pyrimidine analogues alone or together with one or more rescuing pyrimidine bases or nucleosides at a single concentration, at intervals, over a period of several days. In order to determine the prophylactic effectiveness of the rescuing pyrimidine base or nucleoside, the animals are pretreated with such a base or nucleoside prior to the administration of the pyrimidine analogue. Anti-malarial activity of the treatments is estimated by determining blood parasitemia on the animals at appropriate times. The safety of the treatments is estimated by monitoring animals for weight loss and diarrhea, as these are early symptoms of pyrimidine analogue toxicity [Houghton, J. A., et al., Cancer Res., 39:2406-13 (1979)].
Swiss white mice (25-30 g) were divided into groups of five. On day 0, each mouse was infected by intraperitoneal injection of 10^5 erythrocytic forms of P. yoelii. Starting on day 3, when the blood parasitemia had reached between 5 and 12%, the mice were injected intraperitoneally every 4 hours for three consecutive days with 200 μl of various formulations. […]

[1] = system: Plasmodium falciparum, Sierra Leone clone D6; assay: Inhibition of P. falciparum proliferation, [G-3H]-hypoxanthine incorporation, Sierra Leone clone D6 (chloroquine-sensitive); format: cell-based; settings: for IC50: Plasmodium falciparum
Description: 3. Effects of pyrimidine analogues alone or in combination with normal pyrimidine bases or nucleosides or with amino acid derivatives can be tested in malaria parasite-infected erythrocytes. Varying concentrations of pyrimidine analogues in culture medium are added to individual wells of microtitre plates [Desjardins, R. E. et al., Antimicrob. […] Parasitemic erythrocytes in culture medium are added to each well. […] As an alternative to adding a radioactive precursor of nucleic acid biosynthesis, the end point for determining the effects of added drugs can be the incorporation of a radioactive amino acid, e.g., [U-^14 C]-isoleucine, into parasite protein.
Fluoropyrimidines, dispersed in 25 μl of culture medium, were added to individual wells of a 96-well microtitre plate. […] Finally, the incorporation of 0.5 μCi of [G-^3 H]hypoxanthine (1 Ci/mmol) into nucleic acids in each well was determined; this served as a measure of parasite proliferation. […] In a second method, the increase in parasitemia was determined directly by smearing infected erythrocytes on microscope slides, staining with Giemsa stain, and determining the ratio of infected to non-infected erythrocytes. In a third method, parasite-infected erythrocytes were incubated with [U-^14 C]-isoleucine (0.5 μCi; 0.33 Ci/mmol), and the amount of radioactivity incorporated into precipitable proteins determined.

[2] = system: HT-1080 human fibrosarcoma cells; assay: Toxicity to cultured HT-1080 cells, number of viable cells; format: cell-based; settings: for IC50: Homo sapiens
Description: Each data point represents an average of two determinations. […] Each data point represents an average of two determinations.
Half shaded symbols represent overlapping data points.
Toxicity of pyrimidine analogues to cultured human cells is determined as follows. Mammalian cells are seeded into culture plate wells, and growth medium is added. The following day, fresh culture medium containing the appropriate pyrimidine analogues is added to the wells, and the plates incubated for a period of time and at a temperature appropriate to the cell line and the experimental requirements. Thereafter, the number of cells in each well is determined. […] Cells that grow in suspension (e.g., HL-60 and L-1210 cells) are transferred to centrifuge tubes, pelleted at low speed, washed, and the viability determined as above.
HT-1080 cells were seeded into 6-well culture plates at a density of 50,000 cells per 9.6 cm^2 well. Each well contained 2.5 ml of growth medium. […] After 1 minute, the detached cells were suspended in 1.0 ml of EMEM and collected by centrifugation at 300×g for 3 minutes. […] The concentrations of viable cells were determined in a hemocytometer.

SMILES: O=C(O)c1[nH]c(=O)[nH]c(=O)c1F [5-fluoro-orotate]
- time to return of parasitemia after end of treatment (P. yoelii; 0.2 mg/kg, treatment stopped day 6): ≤ 24 h
- transient parasitemia after rechallenge (P. yoelii; 10^6 P. yoelii parasites, days 2 to 4, 0.2 mg/kg group): less than 0.05%
- time to resolution of second surge of parasitemia (P. yoelii; low doses (0.2 and 1 mg/kg), no additional drug): ≤ 14 days
- IC50 ([1]; D6, Example 3, Table 2, hypoxanthine uptake): 0.0022 µM
- IC50 ([1]; D6, Sierra Leone clone, Table 1, mean ± S.D. of five independent drug response curves): 0.0058 ± 0.0031 µM
- times more active than chloroquine ([1]; chloroquine-sensitive Sierra Leone clone): 1.6 times
- decrease of cytotoxicity by 1 mM uridine ([2]; HT-1080, 48 h, simultaneous 1 mM uridine (FIG. 2)): 5 -fold
- IC50 ([2]; HT-1080, 48 h, read-out: IC50 (50% inhibition)): ~10 µM
- IC50 ([2]; HT-1080, read-out: IC50 With 1 mM Uridine): 50 µM
- IC50 ([2]; HT-1080, read-out: IC50 Without Uridine): 10 µM
